Peptide text beside a SMILES is read from it.

In the case of `CCC(=O)C(CS(=O)(=O)c1ccccc1)c1ccc(OC)cc1` (centres undefined), the logP worked out at 2.18.

The molecule `N#Cc1ccco1` had a logP of 0.96.

Molecule `Cc1cccc(C(=O)O)c1O` showed a logP of 2.86.

With `O=C1c2ccccc2C(=O)c2ccccc21`, the lipophilicity (logP) amounted to 3.39.

The molecule `CCOP(=S)(OCC)SCSP(=S)(OCC)OCC` returned a logP of 5.07.

In turn, `CCCC(=O)CC(=O)CCC` yielded a logP of 2.23.

On to `NC(=O)c1ccco1`, for which the logP was -0.11.

`CCC1CCCCN1C(=O)COC(=O)c1ccccc1` (centres undefined) gave a log partition coefficient (logP) of 2.62.

Take `Cc1ccnc2ccccc12`: the logP came out at 2.61.

Molecule `CI` came in with a log partition coefficient (logP) of 1.51.

`CC(C)(C)NC(=O)NO` yielded a log partition coefficient (logP) of 0.5.

For `CC(C)(C)C(=O)NC(CO)C(O)c1ccc([N+](=O)[O-])cc1` (centres undefined), the log partition coefficient (logP) came out at 1.33.

In the case of `O=C(NCC(O)CO)c1c(I)c(N(CCO)C(=O)CO)c(I)c(N(CCO)C(=O)CO)c1I` (centres undefined), the logP is -2.55.

For `Cc1ccc(O)c(-n2nc3ccccc3n2)c1`, the logP is 4.31.

Turning to `O=[N+]([O-])c1nccn1CCO`, the log partition coefficient (logP) was -0.47.

For `Cc1cccc(N2C(=O)CCC2=O)c1`, the logP is 0.57.

As for `O=[N+]([O-])c1ccc(OC2OC(CO)C(O)C(O)C2O)cc1` (centres undefined), the lipophilicity (logP) is -0.44.

`CC(C(=O)O)c1ccc(N2CC3=C(CCCC3)C2=O)cc1` (centres undefined) had a logP of 3.07.

In turn, `CC1(C)N=C(N)N=C(N)N1c1ccccc1` had a logP of 0.28.

Consider `Cc1ccc(N)c(C)c1`, for which the lipophilicity (logP) turned out to be 1.68.

Molecule `CCC(=O)Nc1ccnc2cc(Cl)ccc12` had a log partition coefficient (logP) of 2.73.

Take `CC(C)NC(C)C`: the lipophilicity (logP) stood at 1.4.

Molecule `CCOP(=O)(OCC)OCC` displayed a lipophilicity (logP) of 0.8.

Molecule `O=C(C(=O)c1ccco1)c1ccco1` came in with a logP of 1.24.

`CCC(C(N)=O)(C(N)=O)c1ccccc1` showed a logP of 0.13.

As to `O=c1c(O)c(-c2ccc(O)cc2O)oc2cc(O)cc(O)c12`, the lipophilicity (logP) stood at 1.54.

Molecule `C=C1C[C@]23C[C@@]1(O)CC[C@H]2[C@@]12C=C[C@H](O)[C@@](C)(C(=O)O1)[C@H]2[C@@H]3C(=O)O` displayed a log partition coefficient (logP) of 0.24.

`ON=Cc1ccncc1` yielded a logP of 0.77.

`Cc1ccc2nc(N)[nH]c2c1` came in with a logP of 1.11.

Take `Cc1ncc[nH]1`: the logP is 0.24.

Consider `CCOC(=O)C=Cc1ccc(O)c(O)c1`, for which the logP was found to be 2.56.

Take `c1ccc2cc3ccccc3cc2c1`: the logP amounted to 4.45.

In the case of `COc1ccccc1C`, the logP stood at 2.74.

`CC1CCCC(C)N1N=O` (centres undefined) came in with a logP of 1.36.

`OC(O)C(Cl)(Cl)Cl` showed a lipophilicity (logP) of 0.99.

For the molecule `CC(=O)Nc1cc(C)c(O)c(C)c1`, the logP came to 1.11.

Regarding `NC(=O)Nc1nc(-c2ccccc2)no1`, the logP turned out to be 1.76.

Molecule `CC(C)(C)OC(N)=O` displayed a logP of 0.48.

For `COC(=O)C(F)(F)F`, the logP worked out at 0.6.

The molecule `COc1ccc(OC)c(N)c1` gave a logP of 1.2.

Consider `CN(c1ccccn1)S(=O)(=O)c1ccc(N)cc1`, for which the logP is 1.3.

In turn, `OCC(F)(F)C(F)(F)F` came in with a log partition coefficient (logP) of 1.23.

For `CN(C)C(=O)N(C)N=O`, the logP came out at 0.36.

Take `N#CCC(N)=C(C#N)C#N`: the log partition coefficient (logP) was -0.13.

As to `c1ccc(NC2=NCCN2)cc1`, the logP is 1.01.

On to `CC[C@H](C)[C@H](NC(C)=O)C(=O)N[C@@H](CC(N)=O)C(N)=O` (Ac-Ile-Asn-NH2), for which the logP is -1.41.

Molecule `COCc1ccccc1` gave a log partition coefficient (logP) of 1.92.

As for `Nc1ccncc1`, the lipophilicity (logP) came to 0.32.

For the molecule `Oc1ccc(C(c2ccccc2)c2ccc(O)cc2)cc1`, the logP was 4.3.

The molecule `CN(C)c1nc2c3cccnc3ccc2n1C` returned a logP of 2.28.

`CN(C)C(=O)c1cccs1` yielded a logP of 0.75.

In the case of `CN1C(=O)SC(=Cc2ccc([N+](=O)[O-])o2)C1=O`, the logP amounted to 1.78.

`CCCCF` had a lipophilicity (logP) of 2.58.

For `CSCC[C@H](N)C(=O)O`, the lipophilicity (logP) was -1.87.

As for `CN(C)C=CC#N`, the log partition coefficient (logP) turned out to be 0.47.

For the molecule `Clc1ccc(-c2cc3ccccn3c2)cc1`, the logP came out at 5.2.

`CC(=O)C(=Cc1ccccc1Cl)C(C)=O`: the lipophilicity (logP) turned out to be 2.19.

In turn, `CN(C)c1cccc2c(S(N)(=O)=O)cccc12` returned a log partition coefficient (logP) of 2.01.

Molecule `C=CCC1(CC)C(=O)NC(=O)N(C)C1=O` (centres undefined) returned a lipophilicity (logP) of 1.35.

With `COc1cc(CC(C)N)cc(OC)c1Br` (centres undefined), the log partition coefficient (logP) came out at 2.44.

With `O=C(Nc1ncnc2c1ncn2[C@@H]1O[C@H](CO)[C@@H](O)[C@H]1O)c1ccccc1`, the logP was -0.1.

Turning to `Cc1ccc(/C(=C\CN2CCCC2)c2ccccn2)cc1`, the logP worked out at 3.92.

For the molecule `C[C@](N)(C(=O)O)c1cccc2ccccc12`, the log partition coefficient (logP) was -0.22.

On to `O=C1CCC(=O)N1c1ccccc1I`, for which the logP turned out to be 0.8.

In turn, `O=C(Nc1ccccc1)NC1CC1` displayed a lipophilicity (logP) of 1.65.

The molecule `CC(=O)C(=Cc1ccccc1C)C(C)=O` showed a logP of 1.98.

Molecule `N#Cc1ccncc1C#N` yielded a logP of 0.24.

The molecule `CCN1CCN(CC)C1=S` yielded a lipophilicity (logP) of 1.13.

Molecule `OCc1ccoc1` returned a logP of 0.3.

The molecule `CN(C)c1ccc(C(=O)c2ccc(N(C)C)cc2)cc1` registered a log partition coefficient (logP) of 3.87.

`CCCCN(CCCC)N=O`: the logP stood at 2.63.

`O=C(O)CCC(Nc1ccc(Br)cc1)C(=O)O` (centres undefined) had a log partition coefficient (logP) of 1.12.

Take `O=C(O)CCCCCCc1ccccc1`: the log partition coefficient (logP) was determined as 3.63.

Regarding `COC(=O)CCCCC(C)=O`, the logP stood at 0.55.

Molecule `COc1cccc2cccnc12` showed a logP of 1.84.

Turning to `CC(=O)NC(=O)C1CCC1`, the log partition coefficient (logP) is -0.4.

Consider `O=C([O-])c1ccccc1O.[Na+]`, for which the log partition coefficient (logP) is -1.43.

In the case of `NC(=O)c1ccccc1NC(=O)C(Cl)Cl`, the logP stood at 1.68.

In the case of `Fc1cccc(CCl)c1`, the logP was found to be 2.77.

In turn, `CCOC(=O)c1ccc(NC(=O)N(C)OC)cc1` showed a logP of 2.24.

`CN(C(=O)c1ccccc1)c1ccccc1` showed a logP of 2.36.

The molecule `CN(C)c1cccc2ccccc12` gave a lipophilicity (logP) of 3.46.

Consider `CC(=O)OC1CC(OC2C(O)CC(OC3C(C)OC(OC4CCC5(C)C(CCC6C5CC(O)C5(C)C(C7=CC(=O)OC7)CCC65O)C4)CC3OC(C)=O)OC2C)OC(C)C1O` (centres undefined), for which the lipophilicity (logP) is 2.45.

`CC(C)(C)c1cccc(OCC(=O)O)c1` yielded a logP of 2.96.

With `OCc1ccccn1`, the logP was 0.06.

The molecule `O=C(O)Cc1sc(-c2ccccc2)nc1-c1ccc(Cl)cc1` displayed a logP of 5.19.

In the case of `COc1ccccc1N(C)C`, the lipophilicity (logP) turned out to be 1.63.

Turning to `CC(=O)c1cccnc1`, the log partition coefficient (logP) came to 0.43.

For the molecule `S=C1CCCN1`, the log partition coefficient (logP) was -0.05.

For the molecule `COc1ccc(S(N)(=O)=O)cc1`, the logP turned out to be 0.47.

`O=C1CCN(c2ccccc2)N1` registered a logP of 0.89.

The molecule `CON(C)C(=O)Nc1cccc([N+](=O)[O-])c1` displayed a logP of 1.64.

Regarding `NC(=O)c1cccc(N)c1`, the logP is -0.33.

`CC(=O)c1ccc([N+](=O)[O-])cc1` came in with a logP of 1.53.

`COC(=O)CCCCCC(=O)OCC(=O)C1(O)CCC2C3CCC4=CC(=O)CCC4(C)C3C(O)CC21C` (centres undefined): the log partition coefficient (logP) came out at 3.7.

`Cc1ccc(S(I)=C(N(C)C)N(C)C)cc1Cl` (centres undefined) showed a logP of 0.45.

In the case of `OCCN1CCN(CCCN2c3ccccc3Sc3ccc(Cl)cc32)CC1`, the lipophilicity (logP) came to 4.2.

In the case of `ClC(Cl)(Cl)C(Cl)(Cl)Cl`, the logP was 4.14.

In the case of `Cn1ccc(=O)n(C)c1=O`, the logP was -0.54.

`FC(F)(F)c1nc2c(Cl)cccc2[nH]1` yielded a log partition coefficient (logP) of 2.93.

For the molecule `CC(C)(C)NC[C@H](O)COc1ccccc1C1CCCC1`, the lipophilicity (logP) was 4.15.

In turn, `Nc1cccc2cccnc12` yielded a logP of 1.79.

As to `O=[N+]([O-])C=Cc1ccc(Cl)cc1`, the logP worked out at 2.44.

For `NS(=O)(=O)c1ccc(C(=O)c2ccncc2)cc1`, the logP was 0.56.

In turn, `COC(=O)c1ccc(NC(C)=O)cc1` yielded a lipophilicity (logP) of 1.79.

In turn, `CCN(CC)c1nc(Cl)nc(NC(C)C)n1` registered a log partition coefficient (logP) of 3.94.

With `N#Cc1ccc(CC(=O)Nc2ccccc2)cc1`, the logP came out at 2.82.

`O=C(O)COc1ccc([N+](=O)[O-])cc1`: the log partition coefficient (logP) amounted to 1.48.

For the molecule `C=CC=CCC`, the lipophilicity (logP) came out at 3.16.

Molecule `Clc1cccc2nccnc12` displayed a log partition coefficient (logP) of 1.75.

Molecule `CCCCn1cnc2c(NC(C)=O)ncnc21` gave a log partition coefficient (logP) of 0.55.

For the molecule `CC(C)C(=O)OCC1CCC(n2cnc3c(=O)[nH]cnc32)O1` (centres undefined), the logP worked out at 0.02.

With `O=C(O)c1c(F)cccc1Cl`, the logP worked out at 2.11.

For `CCCCn1nnc2ccccc21`, the logP came out at 2.57.

`CCN(CCO)c1ccccc1`: the lipophilicity (logP) was found to be 2.1.

The molecule `NC12CC3CC(CC(C3)C1)C2` showed a logP of 2.44.

As to `CS(=O)c1ccccc1` (centres undefined), the lipophilicity (logP) worked out at 0.55.

Take `C=C(C)C(=O)OC(C)(C)C`: the logP was determined as 2.54.

As for `CN(C)C(=N)N(C)C`, the logP amounted to 0.41.

For `CNc1nc2c3cccnc3ccc2n1C`, the log partition coefficient (logP) came out at 1.82.

As for `Nc1ccc(S(=O)(=O)Nc2ccccc2Cl)cc1`, the lipophilicity (logP) was 2.

Consider `CCCOC=O`, for which the lipophilicity (logP) came out at 0.83.

Turning to `ClCC(Cl)Cl`, the logP came out at 1.89.

Take `CN1C(=O)CN=C(c2ccccc2)c2cc(C#N)ccc21`: the logP worked out at 1.8.

`C1=CCOC1` gave a logP of 0.46.

The molecule `COc1cc(CCO)ccc1O` yielded a logP of 0.47.

`O=C(CCBr)N1CCN(C(=O)CCBr)CC1` had a lipophilicity (logP) of 0.42.

`COc1ccc(N(CCCC(=O)O)C(=O)c2ccc(Cl)cc2)cc1` showed a log partition coefficient (logP) of 2.7.

In turn, `NCCNC(=O)c1ccccc1` showed a lipophilicity (logP) of 0.06.

Regarding `CCOP(=S)(OCC)SCCSCC`, the logP was found to be 4.02.

Take `C[Si](C)(C)c1ccc(O)cc1`: the logP was determined as 3.84.

As to `O=C(CN1CCCCC1)Nc1ccccc1F`, the logP was found to be 2.16.

For the molecule `C=CCNCCC`, the log partition coefficient (logP) worked out at 1.33.

In the case of `c1ccc2c(c1)Cc1ccccc1-2`, the logP worked out at 4.18.

As for `CN1C(CCl)Nc2cc(Cl)c(S(N)(=O)=O)cc2S1(=O)=O` (centres undefined), the logP is 1.42.

`CCCCOCc1cccc(NC(=O)OCCN2CCCCC2)c1` displayed a lipophilicity (logP) of 3.73.

Molecule `O=[N+]([O-])c1ccc2oncc2c1` yielded a log partition coefficient (logP) of 1.46.

The molecule `O=C(O)c1cccc(F)c1` showed a logP of 2.15.

On to `CON(C)C(=O)Nc1ccc(C=C(C#N)C#N)cc1`, for which the logP turned out to be 2.19.

As a reminder, the logP is a log measure of how a compound divides between an organic and an aqueous phase. A higher logP goes with a more lipophilic compound.
